Assay type in all cases: in vivo
Assay [1] concerns DIO-NASH mice (C57Bl/6J male mice). Briefly: Liver toxicity: plasma ALT and AST, 8 weeks assay in DIO-NASH mice. The settings on record: 50 mg/kg, p.o., b.i.d., end of treatment, vs DIO-NASH vehicle. The protocol:
The assay was carried out to evaluate the effect of the compounds of the invention on liver toxicity for animals with non-alcoholic fat liver disease (DIO-NASH mice). For this assay, the effect of compound 4a in plasma Alanine Aminotransferase (ALT) and in plasma Aspartate Aminotransferase (AST) was evaluated. DIO-NASH mice (C57Bl/6J male mice) were treated with a hydrochloride salt of compound 4a during 8 weeks (50 mg/kg, p.o., b.i.d.), versus a pathological control of DIO-NASH mice and a non-pathological control LEAN-CHOW mice, both treated with the vehicle (0.9% NaCl). The animals were kept under the same conditions were used as in example 2.2. The DIO-NASH mice group were put on high fat diet (40% AMLN diet, D09100301 Research Diets, USA) and a control group (LEAN-CHOW) was put on a regular chow diet (Altromin 1324, Brogaarden, Denmark) for 35 weeks prior to the study.
To evaluate Alanine transaminase (ALT) and Aspartate transaminase (AST), blood samples were collected in heparinized tubes and plasma was separated and stored at −80° C. until analysis. ALT and AST were measured using commercial kits (Roche Diagnostics, Germany) on the Cobas™ C-501 autoanalyzer according to the manufacturer's instructions.

In assay [2] the test system is DIO mice (C57Bl/6 J male mice). The assay is described as follows: Liver lipid content, 36 days assay in DIO mice (colorimetric kits). Conditions: 50 mg/kg orally twice daily, after 36 days, vs saline control. As to the method:
To assess the performance of the compounds disclosed in decreasing hepatic lipid content, DIO mice (C57Bl/6 J male mice) were treated with a hydrochloride salt of compound 4a; and with compound 7a during 36 days, versus a control of DIO mice treated with saline (0.9% NaCl) and versus DIO mice treated with Metformin as a positive control.
(§1) For the assessment, 60 C57Bl/6 J male mice (16-week-old at delivery and 40 g of average weight), obtained from Charles River France, were put on high fat diet for 10 weeks. The animals were housed in ventilated and enriched housing cages (310×125×127 mm^3) throughout the experimental phase. Animals' cages litters were changed at least once a week. Mice were housed in groups of 10 mice on a normal 12 hours light cycle (at 08:00 pm lights were switched off), at 22±2° C. and 50±10% relative humidity. After reception, mice were maintained for three additional acclimation weeks. During the whole assessment (acclimation+treatment phase) a high fat diet (D12492 purchased from Research Diet Inc; 60% fat) and tap water were provided ad libitum.
After the acclimation period, mice were fasted for 6 hours and blood glucose and plasma insulin were measured. Ten animals, those with lower blood glucose/plasma insulin, were discarded from the study. Then, the others were randomized into 5 homogenous groups (n=10 mice per group) according to their blood glucose/plasma insulin levels (HOMA-IR) and body weight. Mice were treated orally twice daily for 36 days with either saline solution (control group), SJT test compound (4a, 7a; 50 mg/kg) or metformin (150 mg/kg).
Finally, mice were sacrificed, and liver was collected, weighted and stored at −80° C. for additional analysis. Liver samples were dissected for liver lipids assay. Liver lipids were assayed using colorimetric commercial assay kits, from liver samples homogenate after lipid solubilization in deoxycholate as described by Miao et al., J Lipid Res, 2004, 45, 1410-17. Samples were homogenized with an ultrasound probe with 500 μl distilled water during few seconds. Then cholic acid at 1% is added to make lipids soluble. The measurement of the different lipids was then performed using colorimetric kits from Sobioda, France.

For assay [3], the system named is DIO-NASH mice (C57Bl/6J male mice). The assay is described as follows: Triglycerides and cholesterol liver content, 8 weeks assay in DIO-NASH mice. Conditions: 50 mg/kg, p.o., b.i.d., vs DIO-NASH vehicle. The text has this: The DIO-NASH mouse model is fed a high fat diet that results on non-alcoholic fat liver disease and are based on C57Bl/6J mice put on a 40% high fat diet prior to the assays. For the assessment of effect of the compounds of the invention in liver lipid content in non-alcoholic fat liver disease, 34 C57Bl/6J male mice (5-week-old at delivery), obtained from Janvier, France, were used. The DIO-NASH mice group were put on high fat diet (40% AMLN diet, D09100301 Research Diets, USA) and a control group (LEAN-CHOW) was put on a regular chow diet (Altromin 1324, Brogaarden, Denmark) for 35 weeks prior to the study.
To assess the effect of compound 4a on hepatic triglyceride or cholesterol content in animals with non-alcoholic fat liver disease, DIO-NASH mice (C57Bl/6J male mice) were treated with a hydrochloride salt of compound 4a during 8 weeks (50 mg/kg, p.o., b.i.d.), versus a pathological control of DIO-NASH mice and a non-pathological control LEAN-CHOW mice, both treated with the vehicle (0.9% NaCl). […]
The triglyceride content in liver was determined using the Triglyceride reagent (Cat. no. 22-045-795, Roche Diagnostics, Germany) on a Cobas™ C-501 autoanalyzer. Homogenized liver tissue was heated to 80-100° C. twice, centrifuged in a microcentrifuge and the triglyceride content was measured in the supernatant.

Assay [4] concerns DIO mice (C57Bl/6J male mice). Briefly: Liver weight, 36 days assay in DIO mice. Conditions: 50 mg/kg orally twice daily, after 36 days, vs saline control and metformin 150 mg/kg. As to the method:
To assess the performance of the compounds disclosed decreasing liver overweight, DIO mice (C57Bl/6J male mice) were treated with compounds 4a and 5a during 36 days, versus a control of DIO mice treated with vehicle (0.9% NaCl) and DIO mice treated with Metformin as a positive control.
as §1, with “60 C57Bl/6J” for “60 C57Bl/6 J”, “whole test” for “whole assessment”, “diet (D12492;” for “diet (D12492”, “Diet Inc” for “Diet Inc;”
After the acclimation period, mice were fasted for 6 hours and blood glucose and plasma insulin were measured. Ten animals, those with lower blood glucose/plasma insulin, were discarded from the study. Then, the others were randomized into 5 homogenous groups (n=10 mice per group) according to their blood glucose/plasma insulin levels (HOMA-IR) and body weight. […]

Take `COc1ccc(-c2nc(C(=O)NCCN)cc3c2[nH]c2ccccc23)cc1` [Compound 4a, N(-ethylamine)-1-benzosubstituted-β-carboline-3-carboxamide]: in assay [1], the “plasma ALT” value is “reduced the plasma ALT levels” and the “plasma AST” value is “reduced the plasma AST levels”. Moreover, in assay [2], the hepatic cholesterol result is “lower lipid levels than untreated control animals”, the hepatic fatty acids entry was “lower lipid levels than untreated control animals” and the hepatic triglycerides entry is on record as “lower lipid levels than untreated control animals”. For the same compound, in assay [3], the liver cholesterol levels result is “reduced liver cholesterol levels” and the liver triglyceride levels result is recorded as “reduced liver triglyceride levels”. The “liver weight (liver overweight)” value in assay [4] is listed as “lower liver weight than either mice treated with metformin or than the control animals”.

For the origin of these results see patent US10857136B2, “Compounds for use in the prevention and/or treatment of non-alcoholic fat liver disease and non-alcoholic steatohepatitis” (SJT MOLECULAR RESEARCH, SL, priority 2017, dated 2020).
